Measured values as given in EP4800018A1, “PAN-KRAS INHIBITOR AND USE THEREOF IN MEDICINES” (Betta Pharmaceuticals Co., Ltd., priority 2023, dated 2025).
Like-named read-outs stand apart in the source and are kept apart here.

Experiment: PK Study of Compounds in Rats
Format: in vivo, Male SD rats
Conditions: mean; for AUC(0-t): read-out: AUC0-t; for Cmax: read-out: C0/Cmax
Method: The test compound was mixed with the vehicle (10% DMSO/5% Solutol/85% physiological saline), vortexed and sonicated to prepare a clear 0.5 mg/mL intravenous injection solution. The test compound was mixed with the vehicle (20% PEG400/10% Solutol/70% pH 4.5 acetate buffer), vortexed and sonicated to prepare a clear 1 mg/mL oral solution. Male SD rats aged 6 to 7 weeks were selected and administered the test compound via intravenous (IV) and oral (PO) routes, respectively. Whole blood samples were collected at 5 min, 15 min, 30 min, 1 h, 2 h, 4 h, 7 h, and 24 h for the intravenous route, and at 15 min, 30 min, 1 h, 2 h, 4 h, 7 h, and 24 h for the oral route. Drug concentrations were analyzed by LC-MS/MS method, and pharmacokinetic parameters were calculated using Phoenix WinNonlin software (Pharsight, USA).

[1] = male, SD, rat, whole blood, IV 1 mg/kg (n=3)
[2] = male, SD, rat, whole blood, PO 10 mg/kg (n=3)

CC1OCCCn2c(c3c4cc(ccc42)-c2csc(n2)CC(NC(=O)C2C(C)C2C)C(=O)N2NC(C(=O)OCC(C)(C)C3)C3CC2C3)-c2cc(N3CCN(C)CC3)cnc21 [Example 186, (1r,2R,3S)-2,3-dimethyl-N-((1^5S,6^4S,4S,Z)-1^5,10,10-trimethyl-1^2-(4-methylpiperazin-1-yl)-5,7-dioxo-1^8,1^9-dihydro-1^5H,1^7H-8-oxa-6^2,6^3-diaza-1(13,15)-pyrido[3',2':7,8][1,5]oxazonino[5,6-a]indola-2(4,2)-thiazola-6(2,4)-bicyclo[3.1.1]heptanacycloundecaphane-4-yl)cyclopropane-1-carbox amide]
F (PO 10 mg/kg vs IV 1 mg/kg (n=3)): 19.5 | clearance [1]: 1.93 mL/min/kg | half-life [1]: 8.4 h | AUC(0-t) [1]: 7510 ng·h/mL | Cmax [1]: 4250 ng/mL | Vd (male, SD, rat, whole blood, IV 1 mg/kg (n=3), read-out: Vss): 1.2 L/kg | AUC(0-t) [2]: 14600 ng·h/mL | Cmax [2]: 1370 ng/mL | Tmax (male, SD, rat, whole blood, PO 10 mg/kg (n=3), read-out: Tmax): 4 h
